Laboratory results from article PMC8830247 (Journal of medicinal chemistry, 2019).
Values belong to the compound of their own block, whether it stands above or below them.

Tests used:
[1] = target: T1, 5-HT1A receptor (Homo sapiens, UniProt P08908); experiment: 5-HT1A [35S]GTPγS binding functional assay
T1 sequence (P08908 1-422): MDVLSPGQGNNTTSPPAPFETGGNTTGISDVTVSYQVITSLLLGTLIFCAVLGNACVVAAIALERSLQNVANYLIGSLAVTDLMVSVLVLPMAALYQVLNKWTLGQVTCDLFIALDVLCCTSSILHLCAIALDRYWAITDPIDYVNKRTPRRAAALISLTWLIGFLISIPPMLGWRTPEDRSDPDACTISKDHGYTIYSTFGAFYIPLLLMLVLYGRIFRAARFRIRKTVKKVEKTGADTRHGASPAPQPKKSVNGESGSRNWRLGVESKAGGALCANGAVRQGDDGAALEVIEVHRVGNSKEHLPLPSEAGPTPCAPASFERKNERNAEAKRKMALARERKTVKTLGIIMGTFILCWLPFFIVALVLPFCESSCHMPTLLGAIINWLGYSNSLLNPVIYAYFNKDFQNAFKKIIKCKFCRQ

[2] = system: D3R; conditions: cited from earlier work
[3] = target: Human Dopamine D3R (Homo sapiens, UniProt P35462); experiment: Stimulation or inhibition of quinpirole-stimulated mitogenesis in CHO cells; assay type: cell-based; conditions: mitogenesis assay
[4] = rats, PO 10 mg/kg; adapted from previously reported data; cited from earlier work
[5] = Pharmacokinetics in rats after oral administration, plasma and brain; conditions: PO 10 mg/kg
[6] = system: dogs; conditions: cited from earlier work
[7] = system: oxycodone self-administration; conditions: cited from earlier work
[8] = system: rats; conditions: pretreatment, rats chronically treated with oxycodone; cited from earlier work
[9] = hot plate assay; cited from earlier work

Sequence of Human Dopamine D3R (P35462 whole entry): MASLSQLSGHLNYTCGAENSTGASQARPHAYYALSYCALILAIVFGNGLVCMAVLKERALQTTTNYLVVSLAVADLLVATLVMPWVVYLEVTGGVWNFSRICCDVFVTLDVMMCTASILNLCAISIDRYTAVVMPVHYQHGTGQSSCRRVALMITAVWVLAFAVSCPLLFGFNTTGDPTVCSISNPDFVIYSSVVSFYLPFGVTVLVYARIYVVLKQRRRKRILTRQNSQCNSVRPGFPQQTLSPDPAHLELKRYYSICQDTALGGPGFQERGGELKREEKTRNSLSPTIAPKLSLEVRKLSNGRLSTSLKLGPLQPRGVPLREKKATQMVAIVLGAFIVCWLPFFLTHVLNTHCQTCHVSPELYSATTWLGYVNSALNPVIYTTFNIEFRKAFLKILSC

5-HT1A functional efficacy (in words) [1]: low potency partial agonist
SMILES: CCc1cccc(N2CCN(CC(F)CCNC(=O)c3cc4ccccc4o3)CC2)c1Cl (centres unmarked) [10b, N-(4-(4-(2-Chloro-3-ethylphenyl)piperazin-1-yl)-3-fluorobutyl)benzofuran-2-carboxamide]

SMILES: O=C(NCC[C@@H](O)CN1CCN(c2cccc(Cl)c2Cl)CC1)c1cc2ccccc2[nH]1 [(R)-2]
D3R functional efficacy (in words) [2]: antagonist

D3R functional efficacy (in words) [3]: D3R antagonists
SMILES: CCc1cc(Cl)c(OC)c(N2CCN(C[C@H](O)CCNC(=O)c3cc4ccccc4[nH]3)CC2)c1 [(R)-4, (R)-N-(4-(4-(3-Chloro-5-ethyl-2-methoxyphenyl)piperazin-1-yl)3-hydroxybutyl)-1H-indole-2-carboxamide]

SMILES: CCc1cccc(N2CCN(C[C@H](O)CCNC(=O)c3cc4ccccc4[nH]3)CC2)c1Cl [(R)-5, (R)-N-(4-(4-(2-Chloro-3-ethylphenyl)piperazin-1-yl)-3-hydroxybutyl)-1H-indole-2-carboxamide]
plasma exposure (AUC0-t) [4]: 1.985 ± 0.2786 µM·h

SMILES: O=C(NCC[C@H](O)CN1CCN(c2cccc(Cl)c2Cl)CC1)c1cc2ccccc2[nH]1 [(S)-2]
D3R functional efficacy (in words) [2]: weak partial agonist

D3R functional efficacy (in words) [3]: D3R antagonists
SMILES: CCc1cc(Cl)c(OC)c(N2CCN(C[C@@H](O)CCNC(=O)c3cc4ccccc4[nH]3)CC2)c1 [(S)-4, (S)-N-(4-(4-(3-Chloro-5-ethyl-2-methoxyphenyl)piperazin-1-yl)3-hydroxybutyl)-1H-indole-2-carboxamide]

brain Cmax [5]: 3666.7 ± 312.7 pmol/g
SMILES: CCc1cccc(N2CCN(C[C@@H](O)CCNC(=O)c3cc4ccccc4[nH]3)CC2)c1Cl [(S)-5, (S)-N-(4-(4-(2-Chloro-3-ethylphenyl)piperazin-1-yl)-3-hydroxybutyl)-1H-indole-2-carboxamide]

SMILES: Cc1ncoc1-c1nnc(SCCCN2C[C@@H]3C[C@]3(c3ccc(C(F)(F)F)cc3F)C2)n1C [compound 1]
blood pressure effect when coadministered with cocaine [6]: produced hypertension

SMILES: CCc1cc(Cl)c(OC)c(N2CCN(CC(O)CCNC(=O)c3cc4ccccc4[nH]3)CC2)c1 (centres unmarked) [compound 4]
acquisition and maintenance of oxycodone self-administration [7]: dose-dependently inhibited
oxycodone extinction response and reinstatement of oxycodone-seeking [7]: inhibited oxycodone extinction response and reinstatement of oxycodone-seeking behaviors
break-point for oxycodone self-administration ([7]; progressive-ratio schedule of reinforcement): lowering the break-point
naloxone-precipitated conditioned place aversion [8]: dose-dependently reduced
effect on antinociceptive actions of oxycodone [9]: no effect

SMILES: CCc1cccc(N2CCN(CC(O)CCNC(=O)c3cc4ccccc4[nH]3)CC2)c1Cl (centres unmarked) [compound 5]
D3R functional efficacy (in words) [2]: relatively low efficacy partial agonist
